Measurements: patent US20260262643A1, “HERBICIDAL BENZOXAZINES” (FMC CORPORATION, priority 2022, published 2026)

What was measured:
[1] = test system: galium; experiment: Test C postemergence; type: in vivo, Galium aparine; settings: Postemergence, 1000 g ai/ha, 10 days, visual 0 to 100 scale (0 no effect, 100 complete control)
Source text: (§1) Seeds of plant species selected from barnyardgrass (Echinochloa crusgalli), blackgrass (Alopecurus myosuroides), corn (Zea mays), foxtail, giant (giant foxtail, Setaria faberi), green foxtail (Setaria viridis), goosegrass (Eleusine indica), kochia (Bassia scoparia), oat, wild (wild oat, Avena fatua), pigweed, palmer (palmer amaranth, palmer pigweed, Amaranthus palmeri), Pigweed, Redroot (redroot pigweed, Amaranthus retroflexus), ragweed (common ragweed, Ambrosia artemisiifolia), ryegrass, Italian ([…] ryegrass, Lolium multiflorum), soybean (Glycine max), and wheat (Triticum aestivum) were planted into a blend of loam soil and sand and treated preemergence with a directed soil spray using test chemicals formulated in a non-phytotoxic solvent mixture which included a surfactant. At the same time, plants selected from these crops and weed species and also galium (catchweed bedstraw, Galium aparine) and horseweed (Erigeron canadensis) were planted in pots containing the same blend of loam soil and sand and treated with postemergence applications of test chemicals formulated in the same manner. Plants ranged in height from 2 to 10 cm and were in the one- to two-leaf stage for the postemergence treatment. Treated plants and untreated controls were maintained in a greenhouse for 10 days, after which time all treated plants were compared to untreated controls and visually evaluated for injury. Plant response ratings, summarized in Table C, are based on a 0 to 100 scale where 0 is no effect and 100 is complete control. A dash (-) response means no test result.

[2] = test system: ryegrass, Italian; experiment: Test C postemergence; type: in vivo, Lolium multiflorum; settings: Postemergence, 1000 g ai/ha, 10 days, visual 0 to 100 scale (0 no effect, 100 complete control)
Source text: as §1

[3] = test system: pigweed, palmer; experiment: Test C preemergence; type: in vivo, Amaranthus palmeri; settings: Preemergence, 1000 g ai/ha; visual rating after 10 days, 0 to 100 scale (0 no effect, 100 complete control)
Source text: as §1

[4] = test system: ragweed; experiment: Test C postemergence; type: in vivo, Ambrosia artemisiifolia; settings: Postemergence, 1000 g ai/ha, 10 days, visual 0 to 100 scale (0 no effect, 100 complete control)
Source text: as §1

[5] = test system: ragweed; experiment: Test C preemergence; type: in vivo, Ambrosia artemisiifolia; settings: Preemergence, 1000 g ai/ha; visual rating after 10 days, 0 to 100 scale (0 no effect, 100 complete control)
Source text: as §1

[6] = test system: ryegrass, Italian; experiment: Test C preemergence; type: in vivo, Lolium multiflorum; settings: Preemergence, 1000 g ai/ha; visual rating after 10 days, 0 to 100 scale (0 no effect, 100 complete control)
Source text: as §1

[7] = test system: barnyardgrass; experiment: Test C preemergence; type: in vivo, Echinochloa crusgalli; settings: Preemergence, 1000 g ai/ha; visual rating after 10 days, 0 to 100 scale (0 no effect, 100 complete control)
Source text: as §1

[8] = test system: barnyardgrass; experiment: Test C postemergence; type: in vivo, Echinochloa crusgalli; settings: Postemergence, 1000 g ai/ha
Source text: as §1

[9] = test system: kochia; experiment: Test C postemergence; type: in vivo, Bassia scoparia; settings: Postemergence, 1000 g ai/ha, 10 days, visual 0 to 100 scale (0 no effect, 100 complete control)
Source text: as §1

[10] = test system: blackgrass; experiment: Test C preemergence; type: in vivo, Alopecurus myosuroides; settings: Preemergence, 1000 g ai/ha; visual rating after 10 days, 0 to 100 scale (0 no effect, 100 complete control)
Source text: as §1

[11] = test system: green foxtail; experiment: Test C preemergence; type: in vivo, Setaria viridis; settings: Preemergence, 1000 g ai/ha; visual rating after 10 days, 0 to 100 scale (0 no effect, 100 complete control)
Source text: as §1

[12] = test system: blackgrass; experiment: Test C postemergence; type: in vivo, Alopecurus myosuroides; settings: Postemergence, 1000 g ai/ha, 10 days, visual 0 to 100 scale (0 no effect, 100 complete control)
Source text: as §1

[13] = test system: horseweed; experiment: Test C postemergence; type: in vivo, Erigeron canadensis; settings: Postemergence, 1000 g ai/ha, 10 days, visual 0 to 100 scale (0 no effect, 100 complete control)
Source text: as §1

[14] = test system: green foxtail; experiment: Test C postemergence; type: in vivo, Setaria viridis; settings: Postemergence, 1000 g ai/ha, 10 days, visual 0 to 100 scale (0 no effect, 100 complete control)
Source text: as §1

[15] = test system: pigweed, palmer; experiment: Test C postemergence; type: in vivo, Amaranthus palmeri; settings: Postemergence, 1000 g ai/ha, 10 days, visual 0 to 100 scale (0 no effect, 100 complete control)
Source text: as §1

[16] = test system: kochia; experiment: Test C preemergence; type: in vivo, Bassia scoparia; settings: Preemergence, 1000 g ai/ha; visual rating after 10 days, 0 to 100 scale (0 no effect, 100 complete control)
Source text: as §1

[17] = 0 to 100 scale, 0 no effect, 100 complete control
[18] = 10 days, visual 0 to 100 scale (0 no effect, 100 complete control)

SMILES	Plant response rating, Galium [1]	Plant response rating, Ryegrass, Italian [2]	Plant response rating, Pigweed, Palmer [3]	Plant response rating, Ragweed [4]	Plant response rating, Ragweed [5]	Plant response rating, Ryegrass, Italian [6]	Plant response rating, Barnyardgrass [7]	Plant response rating, Barnyardgrass [8, 17]	Plant response rating, Kochia [9]	Plant response rating, Blackgrass [10]	Plant response rating, Foxtail, Green [11]	Plant response rating, Blackgrass [12]	Plant response rating, Horseweed [13]	Plant response rating, Foxtail, Green [14]	Plant response rating, Pigweed, Palmer [15]	Plant response rating, Kochia [16]	Plant response rating, Barnyardgrass [8, 18]
C[C@H]1CN(C(=O)c2cccc(-c3ccn(C)n3)c2)c2cccc(Cl)c2O1 [Compound 205]	0	40	60	20	0	40	0	10	50	0	40	30	0	30	30	50	
Cc1cc(-c2cccc(C(=O)N3C[C@H](C)Oc4c(C)cccc43)c2)cnn1 [Compound 209]	40	0	0	0	0	30	0	0	0	0	0	0	20	0	0	0	
Cc1ccc(-c2cccc(C(=O)N3C[C@H](C)Oc4c(C)cccc43)c2)s1 [Compound 244]	60	80	0	20	50	90	50	20	50	0	50	20	90	20	60	0	
Cc1cccc2c1O[C@@H](C)CN2C(=O)c1cccc(-n2cncc2C#N)c1 [Compound 309]	70	10	70	30	0	70	0		40	20	90	0	30	10	70	10	10
Cc1nsc(-c2cccc(C(=O)N3C[C@H](C)Oc4c(Cl)cccc43)c2)n1 [Compound 390]	80	20	90	30	30	80	80		70	20	100	50	0	20	80	50	50
